{"source": "patent US20070110817A1", "about": "“Biological active blood serum obtained by electrostimulation” (Owen Holding Ltd., priority 2004, published 2007)", "test_system": "rats", "assay": "Escape reaction latency after zytisin with or without serum", "assay_type": "in vivo, rat", "experimental": "During the formation and the long-term maintenance of information a significant role is attributed to H-cholino-ceptive mechanisms. 30 animals who were taught for five days how to dive under a “bell” were subdivided into three groups.\nA physiological solution of zytisin (a H-cholino-ceptive antagonist of the brain) was injected with a dose of 1 mg/kg body weight into the peritoneal cavity 30 minutes prior to the test of the animals of the first group (ten rats).\nBiologically active serum was administered in a dose of 100 mg/kg body weight to the animals of the second group (ten rats) and 30 minutes later a zytisin solution was administered with a dose of 1 mg/kg body weight.\nThe third animal group (control—ten rats) received a 1 ml injection of a physiological salt solution.\nThe complex behaviour of the animals was tested according to above-indicated method 48 hours after the injection of the indicated substances.", "data": [{"smiles": "O=c1cccc2n1C[C@@H]1CNC[C@H]2C1", "note": "[zytisin]", "values": [{"measurement": "slowing of the “escape reaction” in comparison to control animals", "setting": "48 hours after zytisin 1 mg/kg", "result": 3, "unit": "fold"}, {"measurement": "Latency period for the reaction of rats to the situation", "setting": "after 48 h, zytisin 1 mg/kg, serum 100 mg/kg 30 minutes before zytisin, control 13.33 ± 0.58", "result": "40.0 ± 14", "unit": "s"}]}]}
